This is an account of results in patent US20240166649A1, “DIHYDROPYRIMIDINE COMPOUND, PREPARATION METHOD THEREFOR AND APPLICATION THEREOF” (Shanghai Visonpharma Co., Ltd., priority 2021, published 2024).

Series [1] has as its system HBV (hepatitis B virus) in HepG2.2.15 cells. The experiment in a line: Cell-based anti-viral activity assay (HBV DNA in supernatant by quantitative PCR). The conditions noted are these: 120 h, anti-HBV activity, HepG2.2.15 cells, 5 days, read-out: EC50 (HepG2.2.15). The protocol: Cell-Based Anti-Viral Activity Assay
The Invention determined the anti-HBV (hepatitis B virus) activity of compounds in HepG2.2.15 cells (Table 1).
HepG2.2.15 is a cell line stably transfected with the HBV genome. HepG2.2.15 cells were cultured in DMEM (1X) with 10% fetal bovine serum (Corning), 100 U penicillin (Gibico), 100 μg/mL streptomycin (Gibico), 250 μg/mL geneticin (Gibco) and GlutaMAXTM-I medium (Invitrogen).
HepG2.2.15 cells were seeded into 96-well plates (4×10^4 cells in 100 μL of medium per well) and incubated overnight at 37° C. The test compounds were weighed and prepared as 10 mM stock solution with DMSO. The stock solutions of the compounds were diluted by a gradient of 3.16 times with DMSO, and then diluted by a gradient of 3.16 times with medium for 50 times. Finally, the diluted compound solutions were added to the cell plate with a total volume of 200 μL and the final DMSO concentration was 1%. The 96-well culture plates loaded with drugs were transferred to an incubator at 37° C. for 5 days. […] nucleic acid releasing agent was added to 96-well PCR reaction plate, and 2 μL of cell supernatant or HBV quantitative standards were added to the corresponding Wells. Centrifuged the plates to fully mix, and incubated at room temperature for 10 min to fully release nucleic acid. Quantified HBV DNA content by fluorescent quantitative PCR (CFX Connect Real-Time System) using Sanxiang Bio hepatitis B virus fluorescent quantitative diagnostic kit.
The standard curve was established by taking the logarithm of the copy number (IU/ml) of the HBV standard sample (log 10) as the abscordinate and the corresponding CT value as the ordinate. The copy number of the sample was calculated according to the corresponding CT of the positive sample and the standard curve, and the percentage of inhibition rate was calculated as follows: • % Inhibition=100-100*(sample HBV copy number−high concentration reference compound column HBV copy number)/DMSO column HBV copy number−high concentration reference compound column HBV copy number).

Series [2] in a line: Cytotoxicity assay (CellTiter Glo). To be noted: human; HepG2.2.15 cells, five days post treatment. In kind it is cell-based. The protocol: The Invention Determined Cytotoxicity of the Compounds Against HepG2.2.15 Cells (Table 2)
HepG2.2.15 cells were seeded into 96-well plates (8000 cells per well) and cell viability was measured by the addition of 60 μL of CellTiter Glo reagent (Promega) five days post treatment with the compounds. Cell plates with CellTiter Glo added were shaken on a plate shaker for 20 min and then the chemiluminescence signal was stabilized at room temperature for 10 min. Chemiluminescence values were read using a microplate reader (Bio-TeK SYNERGY NEO2).
The concentration corresponding to 50% cytotoxicity (CC50) was fitted by graphpad prism software. The cytotoxicity was calculated by the formula: % Cytotoxicity=100−(chemiluminescence value of sample Well −average chemiluminescence value of blank medium column)/(average chemiluminescence value of DMSO column −average chemiluminescence value of blank medium column)*100
For orientation: ATP-based viability assays read luminescence as a measure of living cells.

Where only a bound is given, the exact number is not on record here.

`CCOC(=O)C1=C(CN2CCN3C(=O)N(C45C6C7C4C4C5C6C74C(=O)O)C[C@@H]3C2)NC(c2nccs2)=N[C@H]1c1cccc(F)c1C` (stereo partly shown) [Compound 61]: in series [1], the EC50 (in general, the concentration at which the effect is half-maximal) was determined as 17 nM. In addition, in series [2], the CC50 (usually the concentration that lowers cell viability or growth by half) at 5 days is more than 50000 nM.

Turning to `CCOC(=O)C1=C(CN2CCN3C(=O)N(C45CCC(C(=O)O)(CC4)CC5)C[C@@H]3C2)NC(c2nccs2)=N[C@H]1c1cccc(F)c1C` [Compound 52, 4-((S)-7-(((S)-5-(Ethoxycarbonyl)-6-(3-Fluoro-2-Methylphenyl)-2-(Thiazol-2-Yl)-3,6-Dihydropyrimidin-4-Yl)Methyl)-3-Oxohexahydroimidazo[1,5-a]Pyrazin-2(3H)-Yl)Bicyclo[2.2.2]Octane-1-Carboxylic Acid], the 50% effective concentration (EC50) in series [1] amounted to 3 nM. In series [2], the CC50 at 5 days was more than 50000 nM.

`CCOC(=O)C1=C(CN2CCN3C(=O)N(C45CCC(C(=O)O)(CC4)CC5)C[C@@H]3C2)NC(c2nccs2)=N[C@H]1c1ccc(F)cc1Cl` [Compound 55, 4-((S)-7-(((R)-6-(2-Chloro-4-Fluorophenyl)-5-(Ethoxycarbonyl)-2-(Thiazol-2-Yl)-3,6-Dihydropyrimidin-4-Yl)Methyl)-3-Oxohexahydroimidazo[1,5-a]Pyrazin-2(3H)-Yl)Bicyclo[2.2.2]Octane-1-Carboxylic Acid]: the concentration giving a half-maximal response (EC50) in series [1] turned out to be 2 nM. Moreover, in series [2], the CC50 at 5 days was more than 50000 nM.

Regarding `CCOC(=O)C1=C(CN2CCN3C(=O)N(C45CC(C#N)(C4)C5)C[C@@H]3C2)NC(c2nccs2)=N[C@H]1c1cccc(F)c1C` [Compound 17, Ethyl (S)-6-(((S)-2-(3-Cyanobicyclo[1.1.1]Pentan-1-Yl)-3-Oxohexahydroimidazo[1,5-a]Pyrazin-7(1H)-Yl) Methyl)-4-(3-Fluoro-2-Methylphenyl)-2-(Thiazol-2-Yl)-1,4-Dihydropyrimidine-5-Carboxylate], in series [1], the EC50 came out at 5 nM. The CC50 at 5 days in series [2] is more than 50000 nM.

For `CCOC(=O)C1=C(CN2CCN3C(=O)N(C45CC(CO)(C4)C5)C[C@@H]3C2)NC(c2nccs2)=N[C@H]1c1cccc(F)c1C` [Compound 2, Ethyl (S)-4-(3-Fluoro-2-Methylphenyl)-6-(((S)-2-(3-(Hydroxymethyl)Bicyclo[1.1.1]Pentan-1-Yl)-3-Oxohexahydroimidazo[1,5-a]Pyrazin-7(1H)-Yl)Methyl)-2-(Thiazol-2-Yl)-1,4-Dihydropyrimidine-5-Carboxylate], the EC50 in series [1] is 3 nM. Moreover, the cytotoxic concentration (CC50) at 5 days in series [2] is more than 50000 nM.

Consider `CCOC(=O)C1=C(CN2CCN3C(=O)N(C45CC(CO)(C4)C5)C[C@@H]3[C@H]2C(=O)O)NC(c2nccs2)=N[C@H]1c1cccc(F)c1C` [Compound 33, (8S,8aR)-7-(((S)-5-(Ethoxycarbonyl)-6-(3-Fluoro-2-Methylphenyl)-2-(Thiazol-2-Yl)-3,6-Dihydropyrimidin-4-Yl)Methyl)-2-(3-(Hydroxymethyl)Bicyclo[1.1.1]Pentan-1-Yl)-3-Oxooctahydroimidazo[1,5-a]Pyrazine-8-Carboxylic Acid], for which the EC50 in series [1] stood at 202 nM. Besides, the CC50 at 5 days in series [2] was more than 50000 nM.

On to `COC(=O)C1=C(CN2CCN3C(=O)N(C45CC(CC(=O)O)(C4)C5)C[C@@H]3C2)NC(c2nccs2)=N[C@H]1c1ccc(F)cc1Cl` [Compound 38, 2-(3-((S)-7-(((R)-6-(2-Chloro-4-Fluorophenyl)-5-(Methoxycarbonyl)-2-(Thiazol-2-Yl)-3,6-Dihydropyrimidin-4-Yl)Methyl)-3-Oxohexahydroimidazo[1,5-a]Pyrazin-2 (3H)-Yl)Bicyclo[1.1.1]Pentane-1-Yl)Acetic Acid], for which the EC50 in series [1] amounted to 43 nM. For the same compound, the CC50 at 5 days in series [2] was more than 50000 nM.

As to `CCOC(=O)C1=C(CN2CCN3C(=O)N(C45CCC(C(=O)O)(C4)C5)C[C@@H]3C2)NC(c2nccs2)=N[C@H]1c1ccc(F)cc1Cl` [Compound 57, 4-((S)-7-(((R)-6-(2-Chloro-4-Fluorophenyl)-5-(Ethoxycarbonyl)-2-(Thiazol-2-Yl)-3,6-Dihydropyrimidin-4-Yl)Methyl)-3-Oxohexahydroimidazo[1,5-a]Pyrazin-2(3H)-Yl)Bicyclo[2.1.1]Hexane-1-Carboxylic Acid], the EC50 in series [1] was 12 nM. In addition, the CC50 at 5 days in series [2] was more than 50000 nM.

Regarding `CCOC(=O)C1=C(CN2CCN3C(=O)N(C45CCC(C(=O)O)(C4)C5)C[C@@H]3C2)NC(c2nccs2)=N[C@H]1c1cccc(F)c1C` [Compound 56, 4-((S)-7-(((S)-5-(Ethoxycarbonyl)-6-(3-Fluoro-2-Methylphenyl)-2-(Thiazol-2-Yl)-3,6-Dihydropyrimidin-4-Yl)Methyl)-3-Oxohexahydroimidazo[1,5-a]Pyrazin-2(3H)-Yl)Bicyclo[2.1.1]Hexane-1-Carboxylic Acid], the EC50 in series [1] turned out to be 16 nM. Besides, the 50% cytotoxic concentration (CC50) at 5 days in series [2] was more than 50000 nM.

For `CCOC(=O)C1=C(CN2CCN3C(=O)N(CC45CC(C(=O)O)(C4)C5)C[C@@H]3C2)NC(c2nccs2)=N[C@H]1c1cccc(F)c1C` [Compound 5, 3-(((S)-7-(((S)-5-(Ethoxycarbonyl)-6-(3-Fluoro-2-Methylphenyl)-2-(Thiazol-2-Yl)-3,6-Dihydropyrimidin-4-Yl)Methyl)-3-Oxohexahydroimidazo[1,5-a]Pyrazin-2(3H)-Yl)Methyl)Bicyclo[1.1.1]Pentane-1-Carboxylic Acid], the EC50 in series [1] was 73 nM. Further, the CC50 at 5 days in series [2] was more than 50000 nM.

For `CCOC(=O)C1=C(CN2CCN3C(=O)N(C45CC(CC(=O)O)(C4)C5)C[C@@H]3C2)NC(c2nccs2)=N[C@H]1c1ccc(F)cc1Cl` [Compound 35], the EC50 in series [1] turned out to be 28 nM. The CC50 at 5 days in series [2] is more than 50000 nM.

Take `CCOC(=O)C1=C(CN2CCN3C(=O)N(C45CC(C(=O)NS(C)(=O)=O)(C4)C5)C[C@@H]3C2)NC(c2nccs2)=N[C@H]1c1cccc(F)c1C` [Compound 28, Ethyl (S)-4-(3-Fluoro-2-Methylphenyl)-6-(((S)-2-(3-((Methylsulfonyl)Carbamoyl)Bicyclo[1.1.1]Pentan-1-Yl)-3-Oxohexahydroimidazo[1,5-a]Pyrazin-7(1H)-Yl)Methyl)-2-(Thiazol-2-Yl)-1,4-Dihydropyrimidine-5-Carboxylate]: in series [1], the EC50 was found to be 21 nM. In series [2], the half-maximal cytotoxic concentration (CC50) at 5 days is more than 50000 nM.

As to `CCOC(=O)CC12CC(N3C[C@@H]4[C@@H](COC)N(CC5=C(C(=O)OCC)[C@H](c6cccc(F)c6C)N=C(c6nccs6)N5)CCN4C3=O)(C1)C2` [Compound 44, Ethyl (S)-6-(((8S,8aR)-2-(3-(2-Ethoxy-2-Oxoethyl)Bicyclo[1.1.1]Pentan-1-Yl)-8-(Methoxymethyl)-3-Oxohexahydroimidazo[1,5-a]Pyrazin-7(1H)-Yl)Methyl)-4-(3-Fluoro-2-Methylphenyl)-2-(Thiazol-2-Yl)-1,4-Dihydropyrimidine-5-Carboxylate], in series [1], the half-maximal effective concentration (EC50) was determined as 183 nM. In addition, the CC50 at 5 days in series [2] was more than 50000 nM.

As for `CCOC(=O)C1=C(CN2CCN3C(=O)N(C45CC(NS(=O)(=O)C6CC6)(C4)C5)C[C@@H]3C2)NC(c2nccs2)=N[C@H]1c1cccc(F)c1C` [Compound 29, Ethyl (S)-6-(((S)-2-(3-(Cyclopropanesulfonamido)Bicyclo[1.1.1]Pentan-1-Yl)-3-Oxohexahydroimidazo[1,5-a]Pyrazin-7(1H)-Yl)Methyl)-4-(3-Fluoro-2-Methylphenyl)-2-(Thiazol-2-Yl)-1,4-Dihydropyrimidine-5-Carboxylate], the EC50 in series [1] stood at 6 nM. Further, the CC50 at 5 days in series [2] is more than 50000 nM.

Consider `CCOC(=O)C1=C(CN2CCN3C(=O)N(C45CC(CC(C)(C)C(=O)O)(C4)C5)C[C@@H]3C2)NC(c2nccs2)=N[C@H]1c1cccc(F)c1C` [Compound 4], for which, in series [1], the half-maximal effective concentration (EC50) worked out at 8 nM.

As to `CCOC(=O)C1=C(CN2CCN3C(=O)N(C45CC(COC)(C4)C5)C[C@@H]3C2)NC(c2nccs2)=N[C@H]1c1cccc(F)c1C` [Compound 3, Ethyl (S)-4-(3-Fluoro-2-Methylphenyl)-6-(((S)-2-(3-(Methoxymethyl)Bicyclo[1.1.1]Pentan-1-Yl)-3-Oxohexahydroimidazo[1,5-a]Pyrazin-7(1H)-Yl)Methyl)-2-(Thiazol-2-Yl)-1,4-Dihydropyrimidine-5-Carboxylate], the EC50 in series [1] is 4 nM.

With `CCOC(=O)C1=C(CN2CCN3C(=O)N(C45CC(CC(C)(C)C(=O)O)(C4)C5)C[C@@H]3C2)NC(c2nccs2)=N[C@H]1c1ccc(F)cc1Cl` [Compound 40], the EC50 in series [1] is 12 nM.
